This note sets out measurements from patent US20150335558A1, “NERVE GROWTH INHIBITOR, CUTANEOUS-SENSORY-IRRITATION INHIBITOR, AND MARKER FOR CUTANEOUS-SENSORY-IRRITATION DETECTION” (HOYU CO., LTD., priority 2012, published 2015).

Test [1] concerns histamine in mouse epidermis and dermis. In words: Amount of histamine in skin of mast cell deficient and normal control mice after SDS (Sample Experiment 1-2). Type of test: in vivo. The following applies: Day 4, both mast cell deficient and normal control mice, SDS applied group vs solvent control. On the procedure:
Meanwhile, skin was collected from each of the mast cell deficient mice and normal control mice in the 10% SDS aqueous solution application group mentioned above at Day 4 while the mice were under anesthesia after perfusion with a phosphate buffer solution (PBS) using the cardiac blood circulation system (punched out with a biopsy punch in a circular shape of a diameter of 18 mm). The amounts of histamine in the collected skins were measured. In other words, each collected skin was immersed in PBS of 60° C. for 30 secs., then separated into the epidermis and the dermis. Subsequently, the amounts of histamine in the epidermis and the dermis were measured using the measurement kit (histamine enzyme immunoassay kit (Immunotech, Marseilles, France)). To measure the amount of histamine, tissues of both the epidermis and the dermis were pulverized to create tissue suspensions, which were subjected to centrifugation, then supernatants were collected to measure the amounts of histamine in the supernatants.

Test [2] concerns L-histidine decarboxylase (HDC). Briefly: HDC expression amount in mouse epidermis and dermis by Western blot (Sample Experiment 1-3). Type of test: in vivo. The settings on record: ICR mice, Day 4, 10% SDS vs solvent control. From the text:
Concerning the epidermis and dermis obtained by the method in the “Amount of Histamine in Mouse Skin” section above, the HDC in the epidermis and the HDC in the dermis were quantitatively determined by the Western blot analysis. The protein in the epidermis and the dermis was extracted using the Mammalian cell lysis kit (Sigma, Tokyo, Japan).
The protein extract was subjected to centrifugation and the obtained supernatant was used as a protein solution. The amount of protein in the protein solution was quantitatively determined using a protein quantification kit, 2-D Quant Kit of GE Health Care Bioscience Co. Then, a sample buffer containing a reducing agent, 2-mercaptoethanol, was added to a certain amount of protein, and the mixture was reacted at 95° C. to cut the disulfide bond in the protein structure. This enables electrophoresis that reflects the molecular amount.
The protein solution processed in the above manner was subjected to the Western blot analysis. In other words, electrophoresis was performed according to the following electrophoresis condition. As a result, protein was separated according to the molecular amount. Then, the separated protein was transcribed to the membrane according to the following transcription condition.
Applied gel: Nupage 4%-12% Bis-tris gels (Invitrogen Corp., Carlsbad, Calif.) Electrophoresis buffer: 3-morpholinopropanesulfonic acid (MOPS) buffer Current/electrophoresis time: 200V, 100 mins.
Applied membrane: Polyvinylidene Fluoride (PVDF) membrane Electrophoresis buffer: NuPAGE transcription buffer (Invitrogen Corp., Carlsbad, Calif.) pos Current/electrophoresis time: 30V, 60 mins.
The membrane was cut at about 50 kDa after transcription. Then, blocking was performed with a 1% skim milk aqueous solution. […] After processing the secondary antibody and then washing each membrane with PBS-T (a solution comprising PBS and 0.1% Tween20), a band was detected with a fluorescent scanner. Then, the detected band was determined by quantification using an image analysis software Scion Image (Scion. Corp., Frederick, Md., USA). The Scion Image is a software that selects the band of the protein to be quantified, reads the band area and the density of the color tone, and detects the numerical value corresponding to the protein expression amount based on those information.
HDC and β-actin (component of the cytoskeleton) are detected from the above processing. […]

With `CCCCCCCCCCCCOS(=O)(=O)[O-].[Na+]` [SDS, sodium dodecyl sulfate], in test [1], the “amount of histamine in mouse dermis” value is reported as “barely increased” and the “amount of histamine in mouse epidermis” value is on record as “significantly high”. Moreover, in test [2], the “53 kDa-HDC (active) expression amount, dermis” value is recorded as “did not change”; the “53 kDa-HDC (active) expression amount, epidermis” value is given as “increased”; the “74 kDa-HDC (inactive) expression amount, dermis” value was “increased significantly”; the “74 kDa-HDC (inactive) expression amount, epidermis” value is “increased”.
